According to US7407794B2, “Biological control of plant diseases” (The Horticulture and Food Research Institute of New Zealand …, priority 2001, dated 2008):

System: Botrytis cinerea
Assay: Necrotic leaf disc bioassay with interrupted wet period (laboratory)
Assay type: cell-based
Details: Table 2, necrotic kiwifruit leaf tissues, repeat bioassay
Protocol: Discs (dia. 21 mm) were cut from mature unsprayed grape or kiwifruit leaves selected at random and placed between sheets of cardboard. The discs were gently dried at 40° C. for approximately 9 hours and then washed under running water for 10 minutes to remove any soluble nutrients. The leaf discs were then blot dried once more on sterile paper towels, dried at 40° C. for 6 hours, then sealed in plastic specimen jars, prior to sterilization by gamma-irradiation (4Mrad).
Isolates were maintained on oatmeal agar (30 g finely ground oatmeal plus 20 g agar per litre of water) and incubated for 2 to 4 weeks at 20° C. illuminated according to a 12 hours day/night cycle. Fungal propagules were washed from the sporulating agar plates using sterile 0.01% (v/v) TWEEN®80 (polyoxyethylenesorbitan monooleate) in distilled water. […]
High humidity incubation was interrupted by transferring the leaf disks from the humidity chambers to open petri dishes containing 2 layers of sterile dry (Whatman) filter disks. […] The area of leaf disk tissue with B. cinerea sporulation was assessed visually. […]
Prior to analysis of variance, all data were arcsin transformed using an angular transformation to stabilise the variance and LSD values were calculated for purposes of mean separation […]

Structure (SMILES): CC(C)NC(=O)N1CC(=O)N(c2cc(Cl)cc(Cl)c2)C1=O [iprodione]
- % coverage of necrotic leaf tissue by B. cinerea conidiophores: 20%
- Antagonist efficacy, percentage reduction of B. cinerea conidiophores compared to the B. cinerea control treatment: 20%
